One test concerns the target K-ras G12D (Homo sapiens, UniProt P01116, G12D). Description: G-LISA Ras activation assay, 293H cells transfected with G12D mutant. To be noted: 1 hour treatment. It counts as cell-based. On the procedure:
(§1) 293H cells were seeded in 6-wells at 0.6×10^6 cells per well and transfected next day with 5 μg of Ras wild-type, or G12C, G12D or G12V mutant DNA plasmid vector using transfection reagent Lipofectamine 3000. Next day cells were treated with 3.125-50 μM of Ras compounds for 1 hour. Wild-type transfected cells were subsequently treated with 100 ng/ml EGF for 2 minutes. Cells were washed once in ice-cold PBS, lysed in complete lysis buffer on ice, and processed by G-LISA according to Cytoskeleton protocol.
(§2) In-cell selectivity of the compounds presented herein against a specific K-ras mutant form can also be tested as shown in the following exemplary experiment. 293H cells were seeded in 6-wells and transfected next day with 5 μg of Ras wild-type, or G12C, G12D or G12V mutant DNA plasmid vector. Next day cells were treated with 3.125-50 μM of Ras compounds for 1 hour. Wild-type transfected cells were subsequently treated with 100 ng/ml EGF for 2 minutes. Cells were washed once in ice-cold PBS, lysed in complete lysis buffer on ice, and processed by G-LISA according to Cytoskeleton protocol. FIG. 1 depicts exemplary results.
as §1, with “In still further experiments, the inventors tested selected compounds in a G-LISA assay to compare IC50 values for wild-type and various mutant K-Ras (G12D, G12V) using the following general protocol: 293H” for “293H”

In another test the target is K-ras wild-type (GTP) (Homo sapiens, UniProt P01116). Description: SPR assay (surface plasmon resonance). Format: binding. To be noted: 25° C., 8% DMSO. Here is the method: (§3) Selected compounds were also tested for selective binding to wild type and mutant forms of K-ras in the active and non-active state using surface plasmon resonance, and exemplary results are shown in Table 4.
(§4) The running buffer in all surface plasmon resonance experiments was 10 mM HEPES pH 7.4, 150 mM NaCl, 0.1% (v/v) Tween-20, 1 mM MgCl2, 8% DMSO. Experiments were carried out on the SensiQ Pioneer optical biosensor. The flow rate was set at 50 μL/min and the temperature was 25° C. kRAS protein was immobilized to the Nickel-NTA charged surface of the SensiQ HisCap chip (sensiqtech.com) giving a yield of 4000 RU. Small molecules were prepared in 100% DMSO and further diluted to 8% DMSO in running buffer. The small molecules were injected using the Taylor diffusion gradient injection mode (OneStep®, see e.g., Evaluation of Taylor dispersion injections: Determining kinetic/affinity interaction constants and diffusion coefficients in label-free biosensing, John G. Quinn, Analytical Biochemistry (2011)). Buffer blanks were injected for double referencing purposes. Data processing and model fitting were performed using Qdat.
In general terms: Surface plasmon resonance follows binding to a sensor surface in real time, without labels.

In a further test the target is K-ras G12D (GTP) (Homo sapiens, UniProt P01116, G12D). Description: SPR assay (surface plasmon resonance). It counts as binding. To be noted: 25° C., 8% DMSO. On the procedure:
as §3, §4

The next test concerns the target K-ras G12V (GTP) (Homo sapiens, UniProt P01116, G12V). Description: SPR assay (surface plasmon resonance). It counts as binding. To be noted: 25° C., 8% DMSO. On the procedure:
as §3, §4

In another test the target is K-Ras wild-type (Homo sapiens, UniProt P01116). Description: G-LISA Ras activation assay, 293H cells transfected with Ras wild-type, EGF-stimulated. It counts as cell-based. To be noted: Table 5; IC50, 293H transfected, 1 hour treatment, 100 ng/ml EGF; read-out: G-LISA (wild type). On the procedure:
as §1, §2
as §1, with “In still further experiments, the inventors tested selected compounds in a G-LISA assay to compare IC50 values for wild-type and various mutant K-Ras (G12D, G12V) using the following general protocol: 293H” for “293H”

[1] abbreviates: Table 1, G-LISA, 293H transfected, read-out: IC50 (μM) G12D.
The mark [2] stands for this setting: Table 5, IC50, 293H transfected, read-out: G-LISA (G12D).

Molecules are shown by their SMILES. Where two headings read alike, the source gives them in different places.

Turning to `Cc1nc(C)c(C(=O)Nc2nc(-c3ccc4c(c3)CC(=O)N4)cs2)s1` [Compound 4639], the IC50 at K-ras G12D (setting [1]) and on K-ras G12D (setting [2]) was over 25 µM in each case. The Kd (commonly a measure of binding affinity in units of concentration) on K-ras wild-type (GTP) amounted to 6.4 µM. The “SPR Assay Wild-type (GTP) Rmax” value on K-ras wild-type (GTP) is given as “Rmax = 14.6 ± 0.1”.
In the case of `O=C1CCc2cc(-c3csc(NC(=O)c4scnc4-c4ccccc4)n3)ccc2N1` [Compound 4800], the IC50 on K-ras G12D (setting [1]) is over 25 µM. Moreover, on K-ras G12D (setting [2]), the IC50 is over 25 µM. Further, on K-ras G12D (GTP), the Kd was 27.2 µM and the “SPR Assay G12D (GTP) Rmax” value is “Rmax = 389 ± 1”. Besides, on K-ras G12V (GTP), the Kd came out at 15.2 µM and the “SPR Assay G12V (GTP) Rmax” value is on record as “Rmax = 57.1 ± 0.2”.
For `Cc1nc(C)c(C(=O)Nc2nc(-c3ccc4c(c3)CCC(=O)N4)cs2)[nH]1` [Compound 4805], the IC50 at K-ras G12D (setting [1]) was over 25 µM; on K-ras G12D (setting [2]), 187 µM; on K-Ras wild-type, 7 µM. In addition, the Kd stood at 570 µM at K-ras G12D (GTP) and 12.1 µM on K-ras G12V (GTP). Besides, the “SPR Assay G12D (GTP) Rmax” value at K-ras G12D (GTP) is given as “Rmax = 219 ± 5”. The “SPR Assay G12V (GTP) Rmax” value at K-ras G12V (GTP) is reported as “Rmax = 100.3 ± 0.2”.

The record behind these values is US10487078B2, “Compositions and methods of targeting mutant K-RAS” (NantBio, Inc., priority 2015, dated 2019).
